# In ChEMBL document CHEMBL1127195, “Screening chemically synthesized peptide libraries for biologically-relevant molecules” (Bioorg Med Chem Lett, 1993):
# Test system: Monoclonal antibody (mAb)
# Test: Binding affinity towards monoclonal antibody (MAb) using ELISA assay, activity expressed relative to WQMGHS=1
row,Relative activity,Compound
1,1.31,CSCC[C@@H](NC(=O)[C@H](CCC(N)=O)NC(=O)[C@@H](N)Cc1c[nH]c2ccccc12)C(=O)NCC(=O)N[C@H](Cc1c[nH]cn1)C(=O)N[C@@H](CO)C(=O)O
2,0.83,CSCC[C@H](NC(=O)[C@H](CCC(N)=O)NC(=O)[C@H](N)Cc1c[nH]c2ccccc12)C(=O)NCC(=O)N[C@@H](Cc1c[nH]cn1)C(=O)N[C@H](CO)C(=O)O
3,0.88,CSCC[C@H](NC(=O)[C@@H](CCC(N)=O)NC(=O)[C@H](N)Cc1c[nH]c2ccccc12)C(=O)NCC(=O)N[C@@H](Cc1c[nH]cn1)C(=O)N[C@H](CO)C(=O)O
4,0.82,CSCC[C@H](NC(=O)[C@@H](CCC(N)=O)NC(=O)[C@@H](N)Cc1c[nH]c2ccccc12)C(=O)NCC(=O)N[C@@H](Cc1c[nH]cn1)C(=O)N[C@@H](CO)C(=O)O
5,1.89,CSCC[C@@H](NC(=O)[C@@H](CCC(N)=O)NC(=O)[C@H](N)Cc1c[nH]c2ccccc12)C(=O)NCC(=O)N[C@@H](Cc1c[nH]cn1)C(=O)N[C@@H](CO)C(=O)O
6,1,CSCC[C@H](NC(=O)[C@H](CCC(N)=O)NC(=O)[C@@H](N)Cc1c[nH]c2ccccc12)C(=O)NCC(=O)N[C@@H](Cc1c[nH]cn1)C(=O)N[C@@H](CO)C(=O)O
7,0.89,CSCC[C@@H](NC(=O)[C@H](CCC(N)=O)NC(=O)[C@H](N)Cc1c[nH]c2ccccc12)C(=O)NCC(=O)N[C@@H](Cc1c[nH]cn1)C(=O)N[C@H](CO)C(=O)O
8,0.81,CSCC[C@@H](NC(=O)[C@@H](CCC(N)=O)NC(=O)[C@@H](N)Cc1c[nH]c2ccccc12)C(=O)NCC(=O)N[C@@H](Cc1c[nH]cn1)C(=O)N[C@H](CO)C(=O)O
9,0.43,CSCC[C@@H](NC(=O)[C@@H](CCC(N)=O)NC(=O)[C@H](N)Cc1c[nH]c2ccccc12)C(=O)NCC(=O)N[C@@H](Cc1c[nH]cn1)C(=O)N[C@H](CO)C(=O)O
10,1,CSCC[C@H](NC(=O)[C@H](CCC(N)=O)NC(=O)[C@H](N)Cc1c[nH]c2ccccc12)C(=O)NCC(=O)N[C@H](Cc1c[nH]cn1)C(=O)N[C@H](CO)C(=O)O
11,0.44,CSCC[C@@H](NC(=O)[C@@H](CCC(N)=O)NC(=O)[C@H](N)Cc1c[nH]c2ccccc12)C(=O)NCC(=O)N[C@H](Cc1c[nH]cn1)C(=O)N[C@H](CO)C(=O)O
12,0.78,CSCC[C@H](NC(=O)[C@H](CCC(N)=O)NC(=O)[C@H](N)Cc1c[nH]c2ccccc12)C(=O)NCC(=O)N[C@H](Cc1c[nH]cn1)C(=O)N[C@@H](CO)C(=O)O
13,1.17,CSCC[C@@H](NC(=O)[C@H](CCC(N)=O)NC(=O)[C@@H](N)Cc1c[nH]c2ccccc12)C(=O)NCC(=O)N[C@@H](Cc1c[nH]cn1)C(=O)N[C@H](CO)C(=O)O
14,1.39,CSCC[C@H](NC(=O)[C@@H](CCC(N)=O)NC(=O)[C@H](N)Cc1c[nH]c2ccccc12)C(=O)NCC(=O)N[C@H](Cc1c[nH]cn1)C(=O)N[C@@H](CO)C(=O)O
15,0.86,CSCC[C@H](NC(=O)[C@@H](CCC(N)=O)NC(=O)[C@@H](N)Cc1c[nH]c2ccccc12)C(=O)NCC(=O)N[C@@H](Cc1c[nH]cn1)C(=O)N[C@H](CO)C(=O)O
16,0.64,CSCC[C@H](NC(=O)[C@H](CCC(N)=O)NC(=O)[C@@H](N)Cc1c[nH]c2ccccc12)C(=O)NCC(=O)N[C@@H](Cc1c[nH]cn1)C(=O)N[C@H](CO)C(=O)O
17,0.64,CSCC[C@H](NC(=O)[C@@H](CCC(N)=O)NC(=O)[C@@H](N)Cc1c[nH]c2ccccc12)C(=O)NCC(=O)N[C@H](Cc1c[nH]cn1)C(=O)N[C@@H](CO)C(=O)O
18,1.58,CSCC[C@@H](NC(=O)[C@@H](CCC(N)=O)NC(=O)[C@@H](N)Cc1c[nH]c2ccccc12)C(=O)NCC(=O)N[C@H](Cc1c[nH]cn1)C(=O)N[C@@H](CO)C(=O)O
19,1.16,CSCC[C@@H](NC(=O)[C@H](CCC(N)=O)NC(=O)[C@H](N)Cc1c[nH]c2ccccc12)C(=O)NCC(=O)N[C@H](Cc1c[nH]cn1)C(=O)N[C@@H](CO)C(=O)O
20,0.6,CSCC[C@H](NC(=O)[C@@H](CCC(N)=O)NC(=O)[C@H](N)Cc1c[nH]c2ccccc12)C(=O)NCC(=O)N[C@@H](Cc1c[nH]cn1)C(=O)N[C@@H](CO)C(=O)O
21,0.75,CSCC[C@@H](NC(=O)[C@H](CCC(N)=O)NC(=O)[C@H](N)Cc1c[nH]c2ccccc12)C(=O)NCC(=O)N[C@@H](Cc1c[nH]cn1)C(=O)N[C@@H](CO)C(=O)O
22,0.85,CSCC[C@H](NC(=O)[C@H](CCC(N)=O)NC(=O)[C@@H](N)Cc1c[nH]c2ccccc12)C(=O)NCC(=O)N[C@H](Cc1c[nH]cn1)C(=O)N[C@@H](CO)C(=O)O
23,0.36,CSCC[C@@H](NC(=O)[C@@H](CCC(N)=O)NC(=O)[C@@H](N)Cc1c[nH]c2ccccc12)C(=O)NCC(=O)N[C@H](Cc1c[nH]cn1)C(=O)N[C@H](CO)C(=O)O
24,1.33,CSCC[C@H](NC(=O)[C@H](CCC(N)=O)NC(=O)[C@H](N)Cc1c[nH]c2ccccc12)C(=O)NCC(=O)N[C@@H](Cc1c[nH]cn1)C(=O)N[C@@H](CO)C(=O)O
25,0.33,CSCC[C@@H](NC(=O)[C@H](CCC(N)=O)NC(=O)[C@@H](N)Cc1c[nH]c2ccccc12)C(=O)NCC(=O)N[C@H](Cc1c[nH]cn1)C(=O)N[C@H](CO)C(=O)O
26,0.75,CSCC[C@@H](NC(=O)[C@@H](CCC(N)=O)NC(=O)[C@@H](N)Cc1c[nH]c2ccccc12)C(=O)NCC(=O)N[C@@H](Cc1c[nH]cn1)C(=O)N[C@@H](CO)C(=O)O
27,1.01,CSCC[C@@H](NC(=O)[C@H](CCC(N)=O)NC(=O)[C@@H](N)Cc1c[nH]c2ccccc12)C(=O)NCC(=O)N[C@@H](Cc1c[nH]cn1)C(=O)N[C@@H](CO)C(=O)O
28,1.06,CSCC[C@H](NC(=O)[C@H](CCC(N)=O)NC(=O)[C@@H](N)Cc1c[nH]c2ccccc12)C(=O)NCC(=O)N[C@H](Cc1c[nH]cn1)C(=O)N[C@H](CO)C(=O)O
29,0.9,CSCC[C@@H](NC(=O)[C@@H](CCC(N)=O)NC(=O)[C@H](N)Cc1c[nH]c2ccccc12)C(=O)NCC(=O)N[C@H](Cc1c[nH]cn1)C(=O)N[C@@H](CO)C(=O)O
